Experimental findings from ChEMBL document CHEMBL1201862, “PubChem BioAssay data set” (2004) are described below.

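Where inhibition never reached the appropriate level, the endpoint shown equals the highest concentration tested. Otherwise, values were interpolated linearly from a five-concentration, 48-hour dose response in 96-well plates. Abbreviation: GI50, concentration required for 50% inhibition of growth.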 Activity calls are given as the source filed them. Rule as the data show it: active = GI50 up to about 1.1 µM and inactive = higher.

Experiment in all cases: inhibition of tumour cell growth, NCI panel, 48 h
Experiment [1] deals with SN12C.
The subject of experiment [2] is SF-539.
In experiment [3] the test system is RXF 393.
Experiment [4] has as its system T47D.
Experiment [5] relates to Hs-578T.
Experiment [6] relates to SK-OV-3.
Experiment [7] concerns MDA-MB-435.
Experiment [8] relates to UO-31.
The subject of experiment [9] is SK-MEL-28.
Experiment [10] has as its system IGROV-1.
Experiment [11] concerns SNB-75.
Experiment [12] deals with KM12.
The subject of experiment [13] is LOX IMVI.
In experiment [14] the test system is OVCAR-5.
For experiment [15], the system named is HCT-15.
In experiment [16] the test system is HOP-62.
Experiment [17] concerns SF-295.
Experiment [18] deals with HOP-92.

For the compound `COC(=O)C1CC2CC1C1C2SC(F)(F)C1(F)F` (stereo unspecified), the GI50 in experiment [1], in [2], in [3], in experiment [4], in [5] and in [6] was > 100 µM (inactive) each time. Moreover, the GI50 in experiment [7], in experiment [8], in experiment [9], in [10], in [11] and in [12] was > 100 µM (inactive) in each case. Besides, the GI50 in experiment [13] is > 100 µM (inactive); in [14], > 100 µM (inactive); in experiment [15] it was greater than 100 µM; in [16], > 100 µM (inactive); in [17], > 100 µM (inactive).

Turning to `COC(=O)C1=C(C(=O)OC)SC2(S1)C1=C(CCC1)SC(C(=O)OC)=C2C(=O)OC`, the GI50 in experiment [1] is 10.7 µM (inactive); in experiment [2], 1.48 µM (inactive); in experiment [3], 4.62 µM (inactive); in [4], 9.25 µM (inactive); in [5] it was 18.5 µM (inactive); in experiment [6], 16.9 µM (inactive). Moreover, the GI50 in [7] is 12.9 µM (inactive); in [8], 10.8 µM (inactive); in [9], 10.7 µM (inactive); in experiment [10], 12.9 µM (inactive); in experiment [12] it was 15.1 µM (inactive); in [13] it was 3.33 µM (inactive). Moreover, the GI50 in experiment [14] was 19.4 µM (inactive); in experiment [15], 6.08 µM; in experiment [16], 12.7 µM (inactive); in experiment [17], 15.6 µM (inactive); in [18] it was 10.2 µM (inactive).

`Fc1ccc(Nc2nnc(-c3ccccn3)s2)cc1`: the GI50 in experiment [1] is > 100 µM (inactive); in experiment [2], > 100 µM (inactive); in experiment [3], > 100 µM (inactive); in experiment [4], 5.22 µM (inactive); in [5], > 100 µM (inactive); in experiment [6], > 100 µM (inactive). Moreover, the GI50 in experiment [7], in experiment [9], in [10], in experiment [12], in [13] and in [14] was > 100 µM (inactive) throughout. The GI50 was greater than 100 µM in experiment [15], > 100 µM (inactive) in [16], > 100 µM (inactive) in [17] and > 100 µM (inactive) in experiment [18].

For the compound `N=C1NC(c2ccc(Cl)cc2)=CC(c2cccc(Cl)c2)S1` (stereo unspecified), the GI50 in experiment [1] is 27.7 µM (inactive); in experiment [2], 48.8 µM (inactive); in [3], 23.8 µM (inactive); in [4], 25.4 µM (inactive); in experiment [5] it was 26.5 µM (inactive); in experiment [6], 36.3 µM (inactive). Moreover, the GI50 in [7] is 18.2 µM (inactive); in [8], 29 µM (inactive); in experiment [10] it was 30.9 µM (inactive); in experiment [12], 27 µM (inactive); in experiment [13] it was 33.7 µM (inactive); in [14] it was 66.8 µM (inactive). Also, the GI50 in experiment [15] was 13.1 µM; in [16], 38.7 µM (inactive); in experiment [17], 33.8 µM (inactive); in experiment [18], 16.9 µM (inactive).

On to `CC(CC[C@@]1(C)C(=O)CCC2O[C@]21C)[C@H]1C[C@@H](c2ccoc2)OC1=O` (stereo partly specified), for which the GI50 in experiment [1] was 27.8 µM (inactive); in [2] it was 35.7 µM (inactive); in experiment [3] it was 17.2 µM (inactive); in experiment [4], > 100 µM (inactive); in experiment [5] it was 39.3 µM (inactive); in experiment [6], > 100 µM (inactive). The GI50 in [7] was 44.1 µM (inactive); in experiment [8], 17.2 µM (inactive); in experiment [9] it was 23.6 µM (inactive); in experiment [10], 67.3 µM (inactive); in experiment [12], > 100 µM (inactive); in experiment [13], 19.8 µM (inactive). Further, the GI50 in [14] was 61.1 µM (inactive); in experiment [15], 35.7 µM; in [16] it was > 100 µM (inactive); in [17], > 100 µM (inactive); in experiment [18] it was 28.4 µM (inactive).

As to `CNC(=O)N(CCC#N)CCN(C(=O)NC)c1ccccc1`, the GI50 in [1], in [2], in experiment [3], in [4], in experiment [6] and in experiment [7] was > 100 µM (inactive) in each case. Moreover, the GI50 in experiment [8] was > 100 µM (inactive); in experiment [9], > 100 µM (inactive); in [10], > 100 µM (inactive); in [11], 65 µM (inactive); in experiment [12] it was > 100 µM (inactive); in [13], > 100 µM (inactive). For the same compound, the GI50 in experiment [14] is > 100 µM (inactive); in experiment [15], greater than 100 µM; in [16], > 100 µM (inactive); in [17], > 100 µM (inactive); in [18], > 100 µM (inactive).

In the case of `CCCC(C(=O)Nc1cccc2nc[nH]c12)C(=O)OCC` (stereo unspecified), the GI50 in experiment [1], in experiment [2], in experiment [4], in experiment [5], in experiment [6] and in [7] was > 100 µM (inactive) in each case. The GI50 in [8], in experiment [9], in [10], in [11], in [12] and in [13] was > 100 µM (inactive) in each case. Besides, the GI50 in [14] was > 100 µM (inactive); in experiment [15], greater than 100 µM; in [16], > 100 µM (inactive); in [17], > 100 µM (inactive); in experiment [18], > 100 µM (inactive).

`O=C(Nc1ccccc1)N1CC(CN2CCN(c3ccccc3)CC2)OC1=O` (stereo unspecified): the GI50 in experiment [1] was > 100 µM (inactive); in experiment [3], > 100 µM (inactive); in experiment [4] it was > 100 µM (inactive); in experiment [5], 67 µM (inactive); in [6] it was > 100 µM (inactive); in [7], > 100 µM (inactive). Moreover, the GI50 in experiment [8] is > 100 µM (inactive); in experiment [9], > 100 µM (inactive); in experiment [10], 46.3 µM (inactive); in experiment [12] it was > 100 µM (inactive); in experiment [13] it was > 100 µM (inactive); in [14], > 100 µM (inactive). Besides, the GI50 is greater than 100 µM in experiment [15], > 100 µM (inactive) in experiment [16], > 100 µM (inactive) in experiment [17] and > 100 µM (inactive) in experiment [18].

Consider `O=C1C[C@@]23CCC4(CC2CCC[C@H]3O1)OCCO4` (stereo partly specified), for which the GI50 in [1], in experiment [2], in [3], in experiment [4], in experiment [5] and in experiment [6] was > 100 µM (inactive) in each case. The GI50 in experiment [7], in experiment [9], in [10], in experiment [12], in [13] and in experiment [14] was > 100 µM (inactive) throughout. The GI50 in experiment [15] was greater than 100 µM; in experiment [16], > 100 µM (inactive); in experiment [17], > 100 µM (inactive); in experiment [18] it was > 100 µM (inactive).

Take `c1ccc2c(c1)[nH]c1c2cc[n+]2cc3c(cc12)CCCC3`: the GI50 in experiment [1] was 2.61 µM (inactive); in experiment [2] it was 1.64 µM (inactive); in experiment [4], 1.66 µM (inactive); in experiment [5], 3.87 µM (inactive); in experiment [6], 3.87 µM (inactive); in experiment [7] it was 1.91 µM (inactive). For the same compound, the GI50 in [8] was 16.3 µM (inactive); in experiment [9], 1.47 µM (inactive); in [10], 7.18 µM (inactive); in experiment [11], 5.96 µM (inactive); in experiment [12], 1.7 µM (inactive); in experiment [13] it was 2.39 µM (inactive). The GI50 in experiment [14] was 2.45 µM (inactive); in experiment [15], 10.5 µM; in experiment [16] it was 1.66 µM (inactive); in experiment [17] it was 3.18 µM (inactive); in [18] it was 3.25 µM (inactive).

Consider `CSc1c(C#N)c(=O)n(N)c2[nH]nc(C)c12`, for which the GI50 in experiment [1], in experiment [2], in experiment [3], in experiment [4], in experiment [5] and in [6] was > 100 µM (inactive) throughout. The GI50 in experiment [7], in experiment [8], in experiment [9], in experiment [11], in [12] and in experiment [13] was > 100 µM (inactive) each time. The GI50 in experiment [15] was greater than 100 µM.

Consider `O=C(O)CC(O)(C(=O)O)C(O)C(=O)O` (stereo unspecified), for which the GI50 was > 1000 µM (inactive) in [1]; > 1000 µM (inactive) in experiment [2]; > 1000 µM (inactive) in experiment [3]; > 1000 µM (inactive) in experiment [4]; 119 µM (inactive) in experiment [5]; > 1000 µM (inactive) in [6]. Further, the GI50 is 826 µM (inactive) in experiment [7]; > 1000 µM (inactive) in [9]; > 1000 µM (inactive) in [10]; > 1000 µM (inactive) in [11]; > 1000 µM (inactive) in experiment [12]; 440 µM (inactive) in experiment [13]. The GI50 was > 1000 µM (inactive) in experiment [14], greater than 1000 µM in experiment [15], > 1000 µM (inactive) in [16] and > 1000 µM (inactive) in experiment [17].

For the compound `COC1OC(C(C)O)C2OC(C)(C)OC12` (stereo unspecified), the GI50 in [1], in experiment [2], in experiment [4], in [5], in [6] and in experiment [7] was > 100 µM (inactive) each time. The GI50 in experiment [8], in [9], in experiment [10], in experiment [11], in [12] and in experiment [13] was > 100 µM (inactive) in each case. Further, the GI50 in [14] was > 100 µM (inactive); in experiment [15] it was greater than 100 µM; in experiment [16] it was > 100 µM (inactive); in experiment [17], > 100 µM (inactive).
